Experimental data as given in PubChem BioAssay (NCI).
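Step 1: Grow cells in 96-well plates. Step 2: Expose to compound for 48 hours at 5 concentrations. Step 3: Interpolate endpoints linearly; if unreached, use highest concentration. At the TGI there is no net growth.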

Tests used:
Assay in all cases: inhibition of tumour cell growth, NCI panel, 48 h
[1] = tested on: KM12 colon
[2] = tested on: NCI-H460 lung
[3] = tested on: U251 CNS
[4] = tested on: SF-295 CNS
[5] = tested on: M14 melanoma
[6] = tested on: SNB-75 CNS
[7] = tested on: OVCAR-5 ovarian
[8] = tested on: MDA-MB-435
[9] = tested on: SN12C renal
[10] = tested on: SF-268 CNS
[11] = tested on: UACC-257 melanoma
[12] = tested on: HOP-62 NSCLC
[13] = tested on: EKVX NSCLC
[14] = tested on: SK-MEL-28 melanoma
[15] = tested on: IGROV1 ovarian
[16] = tested on: OVCAR-4 ovarian
[17] = tested on: TK-10 renal
[18] = tested on: RPMI-8226 leukemia
[19] = tested on: K-562 leukemia
[20] = tested on: SW-620 colon
[21] = tested on: SF-539 CNS
[22] = tested on: HCT-15 colon
[23] = tested on: MCF7 breast
[24] = tested on: HCT-116 colon
[25] = tested on: SR leukemia
[26] = tested on: MOLT-4 leukemia
[27] = tested on: A549 NSCLC
[28] = tested on: NCI/ADR-RES ovarian
[29] = tested on: HL-60(TB) leukemia
[30] = tested on: OVCAR-8 ovarian
[31] = tested on: PC-3 prostate
[32] = tested on: HCC-2998 colon
[33] = tested on: ACHN renal
[34] = tested on: MDA-MB-231 breast
[35] = tested on: SK-OV-3 ovarian
[36] = tested on: T-47D breast
[37] = tested on: SNB-19 CNS
[38] = tested on: COLO 205 colon
[39] = tested on: MDA-N
[40] = tested on: NCI-H522 lung
[41] = tested on: SK-MEL-5 melanoma
[42] = tested on: CCRF-CEM leukemia
[43] = tested on: HS 578T breast
[44] = tested on: 786-0 renal
[45] = tested on: UO-31 renal
[46] = tested on: NCI-H23 lung
[47] = tested on: RXF 393 renal
[48] = tested on: CAKI-1 renal
[49] = tested on: UACC-62 melanoma
[50] = tested on: SK-MEL-2 melanoma
[51] = tested on: LOX IMVI melanoma
[52] = tested on: HOP-92 NSCLC
[53] = tested on: HT29 colon
[54] = tested on: DU-145 prostate
[55] = tested on: OVCAR-3 ovarian
[56] = tested on: MALME-3M melanoma
[57] = tested on: NCI-H226 lung
[58] = tested on: A498 renal
[59] = tested on: BT-549 breast

Nc1ccc(Sc2nnc(N)s2)cc1
TGI [1]: > 100 µM
TGI [2]: > 100 µM
TGI [3]: > 100 µM
TGI [4]: > 100 µM
TGI [5]: > 100 µM
TGI [6]: > 100 µM
TGI [7]: > 100 µM
TGI [8]: > 100 µM
TGI [9]: > 100 µM
TGI [10]: > 100 µM
TGI [11]: > 100 µM
TGI [12]: > 100 µM
TGI [13]: > 100 µM
TGI [14]: > 100 µM
TGI [15]: > 100 µM
TGI [16]: > 100 µM
TGI [17]: > 100 µM
TGI [18]: > 100 µM
TGI [19]: > 100 µM
TGI [20]: > 100 µM
TGI [21]: > 100 µM
TGI [22]: > 100 µM
TGI [23]: > 100 µM
TGI [24]: > 100 µM
TGI [25]: > 100 µM
TGI [26]: > 100 µM
TGI [27]: > 100 µM
TGI [28]: > 100 µM
TGI [29]: > 100 µM
TGI [30]: > 100 µM
TGI [31]: > 100 µM
TGI [32]: > 100 µM
TGI [33]: > 100 µM
TGI [34]: > 100 µM
TGI [35]: > 100 µM
TGI [36]: > 100 µM
TGI [37]: > 100 µM
TGI [38]: > 100 µM
TGI [39]: > 100 µM
TGI [40]: > 100 µM
TGI [41]: > 100 µM
TGI [42]: > 100 µM
TGI [43]: > 100 µM
TGI [44]: > 100 µM
TGI [45]: > 100 µM

NC(C/C=C/P(=O)(O)O)C(=O)O (centres undefined)
TGI [1]: > 100 µM
TGI [2]: > 100 µM
TGI [3]: > 100 µM
TGI [4]: > 100 µM
TGI [5]: > 100 µM
TGI [6]: > 100 µM
TGI [7]: > 100 µM
TGI [46]: > 100 µM
TGI [8]: > 100 µM
TGI [9]: > 100 µM
TGI [10]: > 100 µM
TGI [11]: > 100 µM
TGI [47]: > 100 µM
TGI [48]: 32.8 µM
TGI [13]: > 100 µM
TGI [14]: > 100 µM
TGI [15]: > 100 µM
TGI [49]: > 100 µM
TGI [16]: > 100 µM
TGI [17]: > 100 µM
TGI [50]: > 100 µM
TGI [19]: > 100 µM
TGI [20]: > 100 µM
TGI [21]: > 100 µM
TGI [22]: > 100 µM
TGI [23]: > 100 µM
TGI [51]: > 100 µM
TGI [52]: > 100 µM
TGI [24]: > 100 µM
TGI [25]: > 100 µM
TGI [26]: > 100 µM
TGI [27]: > 100 µM
TGI [28]: > 100 µM
TGI [29]: > 100 µM
TGI [30]: > 100 µM
TGI [31]: > 100 µM
TGI [32]: > 100 µM
TGI [33]: > 100 µM
TGI [34]: > 100 µM
TGI [35]: > 100 µM
TGI [36]: > 100 µM
TGI [37]: > 100 µM
TGI [53]: > 100 µM
TGI [54]: > 100 µM
TGI [38]: > 100 µM
TGI [39]: > 100 µM
TGI [55]: > 100 µM
TGI [40]: > 100 µM
TGI [41]: > 100 µM
TGI [42]: > 100 µM
TGI [43]: > 100 µM
TGI [45]: > 100 µM

CCn1cc(C(=O)O)c(=O)c2ccc(C)nc21
TGI [1]: > 100 µM
TGI [2]: > 100 µM
TGI [3]: > 100 µM
TGI [4]: > 100 µM
TGI [5]: > 100 µM
TGI [6]: > 100 µM
TGI [7]: > 100 µM
TGI [46]: > 100 µM
TGI [8]: > 100 µM
TGI [9]: > 100 µM
TGI [10]: > 100 µM
TGI [56]: > 100 µM
TGI [11]: > 100 µM
TGI [48]: > 100 µM
TGI [12]: > 100 µM
TGI [13]: > 100 µM
TGI [14]: > 100 µM
TGI [15]: > 100 µM
TGI [57]: > 100 µM
TGI [16]: > 100 µM
TGI [17]: > 100 µM
TGI [50]: > 100 µM
TGI [18]: > 100 µM
TGI [19]: > 100 µM
TGI [20]: > 100 µM
TGI [21]: > 100 µM
TGI [22]: > 100 µM
TGI [23]: > 100 µM
TGI [51]: > 100 µM
TGI [52]: > 100 µM
TGI [24]: > 100 µM
TGI [25]: > 100 µM
TGI [26]: > 100 µM
TGI [27]: > 100 µM
TGI [28]: > 100 µM
TGI [29]: > 100 µM
TGI [30]: > 100 µM
TGI [31]: > 100 µM
TGI [32]: > 100 µM
TGI [33]: > 100 µM
TGI [34]: > 100 µM
TGI [36]: > 100 µM
TGI [37]: > 100 µM
TGI [53]: > 100 µM
TGI [54]: > 100 µM
TGI [38]: > 100 µM
TGI [39]: > 100 µM
TGI [55]: > 100 µM
TGI [40]: > 100 µM
TGI [41]: > 100 µM
TGI [42]: > 100 µM
TGI [43]: > 100 µM
TGI [44]: > 100 µM
TGI [45]: > 100 µM

COc1cc2c3c(c1Oc1nnnn1-c1ccccc1)-c1c(ccc4c1OCO4)C[C@H]3N(C)CC2
TGI [1]: > 100 µM
TGI [2]: > 100 µM
TGI [3]: > 100 µM
TGI [4]: > 100 µM
TGI [5]: 37.5 µM
TGI [6]: 91.3 µM
TGI [7]: > 100 µM
TGI [46]: > 100 µM
TGI [8]: 51.3 µM
TGI [9]: > 100 µM
TGI [10]: > 100 µM
TGI [56]: 34.8 µM
TGI [11]: 40 µM
TGI [12]: > 100 µM
TGI [13]: > 100 µM
TGI [14]: 37.1 µM
TGI [15]: > 100 µM
TGI [57]: > 100 µM
TGI [49]: 29 µM
TGI [17]: > 100 µM
TGI [50]: > 100 µM
TGI [18]: > 100 µM
TGI [19]: > 100 µM
TGI [20]: > 100 µM
TGI [21]: > 100 µM
TGI [22]: 73.1 µM
TGI [51]: 77.5 µM
TGI [52]: 78.6 µM
TGI [24]: > 100 µM
TGI [25]: > 100 µM
TGI [26]: > 100 µM
TGI [27]: > 100 µM
TGI [28]: > 100 µM
TGI [29]: > 100 µM
TGI [30]: > 100 µM
TGI [31]: > 100 µM
TGI [32]: 36.3 µM
TGI [33]: 88.7 µM
TGI [34]: > 100 µM
TGI [35]: > 100 µM
TGI [36]: > 100 µM
TGI [37]: > 100 µM
TGI [53]: 41.9 µM
TGI [54]: > 100 µM
TGI [38]: > 100 µM
TGI [39]: 55.1 µM
TGI [55]: > 100 µM
TGI [40]: 94.6 µM
TGI [41]: > 100 µM
TGI [42]: > 100 µM
TGI [43]: > 100 µM
TGI [44]: 39.7 µM
TGI [45]: > 100 µM

O=c1c(Nc2ccccc2)cn(CCOc2ccccc2)c(=O)n1CCOc1ccccc1
TGI [1]: > 100 µM
TGI [2]: > 100 µM
TGI [3]: > 100 µM
TGI [4]: > 100 µM
TGI [5]: > 100 µM
TGI [7]: > 100 µM
TGI [46]: > 100 µM
TGI [8]: > 100 µM
TGI [9]: > 100 µM
TGI [10]: 67.6 µM
TGI [56]: > 100 µM
TGI [11]: > 100 µM
TGI [47]: > 100 µM
TGI [48]: > 100 µM
TGI [12]: 41.3 µM
TGI [13]: > 100 µM
TGI [14]: > 100 µM
TGI [15]: > 100 µM
TGI [49]: > 100 µM
TGI [16]: 54.4 µM
TGI [58]: > 100 µM
TGI [18]: > 100 µM
TGI [19]: > 100 µM
TGI [20]: > 100 µM
TGI [22]: > 100 µM
TGI [23]: > 100 µM
TGI [51]: > 100 µM
TGI [52]: 83.4 µM
TGI [24]: > 100 µM
TGI [25]: > 100 µM
TGI [26]: > 100 µM
TGI [27]: > 100 µM
TGI [28]: > 100 µM
TGI [59]: 72.3 µM
TGI [29]: > 100 µM
TGI [31]: > 100 µM
TGI [32]: > 100 µM
TGI [33]: > 100 µM
TGI [37]: > 100 µM
TGI [53]: > 100 µM
TGI [54]: > 100 µM
TGI [38]: > 100 µM
TGI [39]: > 100 µM
TGI [55]: > 100 µM
TGI [40]: 99.5 µM
TGI [41]: > 100 µM
TGI [42]: > 100 µM
TGI [43]: 76.8 µM
TGI [44]: > 100 µM
TGI [45]: > 100 µM
